Data: patent US10947223B2, “Substituted oxazines as beta-secretase inhibitors” (AMGEN INC., priority 2016, dated 2021)

What was measured:
Recombinant CatD = Recombinant CatD (Homo sapiens (Human), UniProt P07339); assay: In vitro enzymatic Cathepsin D (CatD) FRET assay; format: biochemical; conditions: pH 3.5, read-out: CatD Enzyme IC50
Procedure: In Vitro Enzymatic Cathepsin D (CatD) FRET Assay
Recombinant CatD was expressed in CHO cells. The assay buffer for CatD was 0.05 M citrate pH 3.5, 10% DMSO final, 5 mM CHAPS. The CatD enzyme (9 nM) was pre-incubated for one hour with inhibitors, typically in about 1 uL of DMSO according to a serial dilution, is added thereto. The assays was effectively started by the addition of different FRET substrates (20 nM for CatD) and the combination was incubated for one hour. The FRET assay was terminated with by addition of tris buffer, which raises the pH to neutrality, and the fluorescence was determined. The FRET substrate was a peptide with commercially available fluorophore and quencher, on opposite sides of the CatD cleavage site. The CatD substrate peptide sequence was based on sequence #1 of Table 1 from Gulnik et al., FEBS Lett. 413(2):379-384 (1997). Proteolytic cleavage of the FRET substrate released quenching of fluorescence (CatD excitation 500 nm and emission 580 nm).
The in vitro CatD FRET assay data for each of the Examples is provided in Table 2, conducted by the first procedure described above. […] Thus, with this surprising selectivity profile, the compounds provided herein are believed to minimize, reduce or completely eliminate any risk of retinal atrophy and abnormal development of the eye and of the retinal pigmented epithelium as it relates to the normal function and activity of CatD.

human recombinant BACE2 = human recombinant BACE2 (Homo sapiens (Human), UniProt Q9Y5Z0); assay: In vitro enzymatic BACE2 FRET assay; format: biochemical; conditions: pH 4.5, read-out: BACE2 Enzyme IC50
Procedure: (§1) In Vitro Enzymatic BACE1 and BACE2 FRET (Fluorescence Resonance Energy Transfer) Assays
(§2) The cDNAs for both human recombinant BACE1 and 2 with C-terminal 6-His Tags were cloned into transient protein expression vectors, which were subsequently transfected into mammalian cell lines. These recombinant proteins were further purified using Ni-NTA affinity chromatography (Qiagen). The assay buffer used in these screens was 0.05 M acetate, pH 4.5, 8% DMSO final, 100 μM genapol (which is a nonionic detergent, below its Critical Micelle Concentration). The β-secretase enzyme (0.02 nM for BACE1 and 0.64 nM for BACE2), which was pre-incubated for one hour with the test compound, typically in about 1 uL of DMSO according to a serial dilution, was added thereto. The assay was effectively started by the addition of FRET substrate (50 nM) and the combination was incubated for one hour. The FRET assay was terminated by the addition of tris buffer, which raised the pH to neutrality, and the fluorescence was determined. The FRET substrate was a peptide with commercially available fluorophore and quencher, on opposite sides of the BACE cleavage site. The specific FRET substrate used in this assay was made by Amgen in-house. Commercially available FRET substrates, for example, the FRET substrate offered with the BACE1 FRET Assay Kit sold by ThermoFisher Scientific (Catalog Number P2985), may be used in this assay with the appropriate modifications, which are within the purview of the ability of a person with ordinary skill in the art. Proteolytic cleavage of the FRET substrate released quenching of fluorescence (excitation 488 nm and emission 590 nm).

BACE1 [1] = target: T1, BACE1 (Homo sapiens (Human), UniProt P56817); assay: In vitro enzymatic BACE1 FRET assay; format: biochemical; conditions: pH 4.5, read-out: BACE1 Enzyme IC50
Procedure: as §1, §2
Target sequence in this assay (P56817 46-501): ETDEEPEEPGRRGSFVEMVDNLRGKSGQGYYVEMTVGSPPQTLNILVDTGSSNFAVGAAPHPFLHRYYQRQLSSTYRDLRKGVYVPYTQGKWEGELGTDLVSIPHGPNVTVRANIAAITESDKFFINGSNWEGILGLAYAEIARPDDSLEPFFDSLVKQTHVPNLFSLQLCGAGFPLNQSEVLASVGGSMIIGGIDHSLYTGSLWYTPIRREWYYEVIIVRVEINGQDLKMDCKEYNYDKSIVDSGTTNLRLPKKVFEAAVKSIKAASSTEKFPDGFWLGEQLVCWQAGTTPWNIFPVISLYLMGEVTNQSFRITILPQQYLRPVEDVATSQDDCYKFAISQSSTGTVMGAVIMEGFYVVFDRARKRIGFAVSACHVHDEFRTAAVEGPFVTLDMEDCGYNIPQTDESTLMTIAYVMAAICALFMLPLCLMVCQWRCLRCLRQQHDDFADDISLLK

BACE1 [2] = target: T1, BACE1; assay: In vitro BACE1 cell-based assay (Aβ40 in conditioned medium, HTRF); conditions: Aβ40 in conditioned medium of cells expressing APP, 24 h
Procedure: In Vitro BACE1 Cell-Based Assay
The cell-based assay measures inhibition or reduction of Aβ40 in conditioned medium of test compound treated cells expressing amyloid precursor protein. Cells stably expressing Amyloid Precursor Protein (APP) were plated at a density of 45K cells/well in 384 well plates (Corning/BioCoat 354663). The test compounds were then added to cells in 22-point dose response concentrations with the starting concentration being 62.5 μM. The compounds were diluted from stock solutions in DMSO and the final DMSO concentration of the test compounds on cells was 0.625%. The cells were cultivated overnight at 37° C. and 5% CO2 in DMEM supplemented with 10% FBS. After 24 h of incubation with the test compounds, the conditioned media was collected and the Aβ40 levels were determined using HTRF (Homogeneous Time Resolved Fluorescence). The IC50 of the compound was calculated from the percent of control or percent inhibition of Aβ 40 as a function of the concentration of the test compound.
The HTRF to detect Aβ40 was performed in 384 well plates (Costar 3658). The antibody pair that were used to detect Aβ 40 from cell supernatants were ConfAb40 antibody (Amgen in-house) and biotinylated 6E10 (BIOLEGEND). As an alternative to ConfAb40, a commercially available antibody, Anti-beta Amyloid 1-40 antibody [BDI350] from Abcam, Cambridge, Mass. 02139-1517 (Product code: ab20068), may be used in this assay. The concentrations were 0.35 μg/mL of ConfAb40 antibody and 1.33 μg/mL of 6E10-biotinylated antibody, as well as 4.5 μg/mL of Streptavidin Allophycocyanin Conjugate (ThermoFisher Scientific) in HTRF Buffer ([…], 1% BSA, 0.5% Tween 20).
The conditioned media was incubated with above antibodies and Streptavidin Allophycocyanin Conjugate for 30-60 minutes at 23° C. The final readout was performed on Envision from PerkinElmer.
Target sequence in this assay (P56817 46-501, species assumed): as the sequence (P56817 46-501) above

Sequence of Recombinant CatD (P07339 65-412): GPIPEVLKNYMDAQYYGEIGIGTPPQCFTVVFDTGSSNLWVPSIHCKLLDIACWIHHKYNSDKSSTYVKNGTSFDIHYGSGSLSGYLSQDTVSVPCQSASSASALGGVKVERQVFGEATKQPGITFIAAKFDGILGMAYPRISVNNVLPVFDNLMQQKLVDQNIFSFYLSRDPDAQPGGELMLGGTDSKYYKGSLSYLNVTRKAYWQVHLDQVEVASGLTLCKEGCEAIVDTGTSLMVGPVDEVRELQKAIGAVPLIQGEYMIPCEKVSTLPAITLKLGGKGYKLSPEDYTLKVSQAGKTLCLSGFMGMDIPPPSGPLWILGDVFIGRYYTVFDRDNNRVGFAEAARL
Sequence of human recombinant BACE2 (Q9Y5Z0 63-518): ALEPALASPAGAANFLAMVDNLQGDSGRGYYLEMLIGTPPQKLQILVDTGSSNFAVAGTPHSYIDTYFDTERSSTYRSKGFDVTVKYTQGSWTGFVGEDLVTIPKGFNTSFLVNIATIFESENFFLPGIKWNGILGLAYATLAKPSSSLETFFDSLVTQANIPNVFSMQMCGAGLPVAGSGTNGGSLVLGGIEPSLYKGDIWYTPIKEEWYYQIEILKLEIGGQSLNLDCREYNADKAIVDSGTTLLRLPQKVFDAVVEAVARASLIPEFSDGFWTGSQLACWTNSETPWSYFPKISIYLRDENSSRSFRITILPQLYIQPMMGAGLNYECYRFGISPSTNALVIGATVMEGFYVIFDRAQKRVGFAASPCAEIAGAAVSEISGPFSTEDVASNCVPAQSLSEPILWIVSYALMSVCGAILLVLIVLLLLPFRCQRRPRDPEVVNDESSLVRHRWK

SMILES | IC50 (Recombinant CatD) [µM] | IC50 (human recombinant BACE2) [µM] | IC50 (BACE1 [1]) [µM] | IC50 (BACE1 [2]) [µM]
CC#CCOc1cnc(/C(F)=C/c2ccc(F)c([C@@]3(C)N=C(N)OC[C@@H]3OCC(F)(F)F)c2)cn1 [Example 113, (4R,5R)-4-(5-((Z)-2-(5-(but-2-yn-1-yloxy)pyrazin-2-yl)-2-fluorovinyl)-2-fluorophenyl)-4-methyl-5-(2,2,2-trifluoroethoxy)-5,6-dihydro-4H-1,3-oxazin-2-amine] | 233 | 17.1 | 0.052 | 0.048
C[C@]1(c2cc(/C=C(\F)c3ccc(C#N)cn3)ccc2F)N=C(N)OC[C@@H]1OCC(F)(F)F [Example 109, 6-((Z)-2-(3-((4R,5R)-2-amino-4-methyl-5-(2,2,2-trifluoroethoxy)-5,6-dihydro-4H-1,3-oxazin-4-yl)-4-fluorophenyl)-1-fluorovinyl)nicotinonitrile] | 1190 | 3.87 | 0.125 | 0.014
C[C@@]1(c2cc(/C=C(\F)c3ccc(Cl)cn3)ccc2F)CO[C@@](C)(C(F)(F)F)C(N)=N1 [Example 103, (2R,5R)-5-(5-((Z)-2-(5-chloropyridin-2-yl)-2-fluorovinyl)-2-fluorophenyl)-2,5-dimethyl-2-(trifluoromethyl)-5,6-dihydro-2H-1,4-oxazin-3-amine] | 19.2 | 0.017 | 0.065 | 0.693
C[C@]1(c2nc(/C=C(\F)c3ccc(C#N)cn3)ccc2F)N=C(N)OCC1(F)F [Example 116, (R,Z)-6-(2-(6-(2-amino-5,5-difluoro-4-methyl-5,6-dihydro-4H-1,3-oxazin-4-yl)-5-fluoropyridin-2-yl)-1-fluorovinyl)nicotinonitrile] | > 400 | 11.4 | 1.05 | 0.676
C[C@@]1(c2cc(/C=C(\F)c3cnc(C#N)cn3)ccc2F)CO[C@@](C)(C(F)(F)F)C(N)=N1 [Example 105, 5-((Z)-2-(3-((3R,6R)-5-amino-3,6-dimethyl-6-(trifluoromethyl)-3,6-dihydro-2H-1,4-oxazin-3-yl)-4-fluorophenyl)-1-fluorovinyl)pyrazine-2-carbonitrile] | 415 | 0.273 | 0.046 | 0.13

Further molecules by falling IC50 (Recombinant CatD), results first:

IC50 (Recombinant CatD) [µM] | IC50 (human recombinant BACE2) [µM] | IC50 (BACE1 [1]) [µM] | IC50 (BACE1 [2]) [µM] | SMILES
215 | 0.421 | 0.954 | 1.12 | NC1=N[C@@](c2cc(/C=C(\F)c3ccc(Cl)cn3)ccc2F)(C(F)F)[C@H]2C[C@H]2O1 [Example 101, (1R,5S,6R)-5-(5-((Z)-2-(5-chloropyridin-2-yl)-2-fluorovinyl)-2-fluorophenyl)-5-(difluoromethyl)-2-oxa-4-azabicyclo[4.1.0]hept-3-en-3-amine]
204 | 0.095 | 0.026 | 0.152 | C[C@@]1(c2cc(/C=C(\F)c3ccc(C#N)cn3)ccc2F)CO[C@@](C)(C(F)(F)F)C(N)=N1 [Example 104, 6-((Z)-2-(3-((3R,6R)-5-amino-3,6-dimethyl-6-(trifluoromethyl)-3,6-dihydro-2H-1,4-oxazin-3-yl)-4-fluorophenyl)-1-fluorovinyl)nicotinonitrile]
88.4 | 1.59 | 0.666 | 4.13 | C[C@@]1(c2cc(/C=C(\F)c3cnc(OCC(F)(F)C(F)F)cn3)ccc2F)CO[C@@](C)(C(F)(F)F)C(N)=N1 [Example 106, (2R,5R)-5-(2-fluoro-5-((Z)-2-fluoro-2-(5-(2,2,3,3-tetrafluoropropoxy)pyrazin-2-yl)vinyl)phenyl)-2,5-dimethyl-2-(trifluoromethyl)-5,6-dihydro-2H-1,4-oxazin-3-amine]
63.9 | 0.564 | 0.257 | 0.948 | NC1=N[C@@](c2cc(/C=C(\F)c3ccc(Br)cn3)ccc2F)(C(F)F)[C@H]2C[C@H]2O1 [Example 100, (1R,5S,6R)-5-(5-((Z)-2-(5-bromopyridin-2-yl)-2-fluorovinyl)-2-fluorophenyl)-5-(difluoromethyl)-2-oxa-4-azabicyclo[4.1.0]hept-3-en-3-amine]
